The values that follow are results of earlier work, collected in EP1464334A1 (priority 2003, dated 2004).

Structures can show the parent of a compound that is named as a salt. Where two headings read alike, the source gives them in different places.

The conditions of series [1]: mouse, in vivo, po.
The conditions of series [2]: rabbit, in vivo, po.

For `CCN(CC)CCCC(C)Nc1c2ccc(Cl)cc2nc2ccc(OC)cc12` (centres unmarked) [Chinacrinhydrochlorid], the LD50-Dosis in series [1] was 557 mg/kg; in series [2], 433 mg/kg.
